Results from ChEMBL document CHEMBL1127581, “Evolution of a novel series of [(N,N-dimethylamino)propyl]- and piperazinylbenzanilides as the first selective 5-HT1D antagonists” (J Med Chem, 1994).

Key:
[1] = target: D(1A) dopamine receptor (Homo sapiens, UniProt P21728); test: Binding affinity against dopamine receptor D1
[2] = organism: Oryctolagus cuniculus; test: Tested in vitro for its ability to block 5-HT2A induced contraction of rabbit isolated aorta; assay type: functional
[3] = target: T1, D(4) dopamine receptor (Homo sapiens, UniProt P21917); test: Binding affinity against dopamine D4 receptor
T1 sequence (P21917 whole entry): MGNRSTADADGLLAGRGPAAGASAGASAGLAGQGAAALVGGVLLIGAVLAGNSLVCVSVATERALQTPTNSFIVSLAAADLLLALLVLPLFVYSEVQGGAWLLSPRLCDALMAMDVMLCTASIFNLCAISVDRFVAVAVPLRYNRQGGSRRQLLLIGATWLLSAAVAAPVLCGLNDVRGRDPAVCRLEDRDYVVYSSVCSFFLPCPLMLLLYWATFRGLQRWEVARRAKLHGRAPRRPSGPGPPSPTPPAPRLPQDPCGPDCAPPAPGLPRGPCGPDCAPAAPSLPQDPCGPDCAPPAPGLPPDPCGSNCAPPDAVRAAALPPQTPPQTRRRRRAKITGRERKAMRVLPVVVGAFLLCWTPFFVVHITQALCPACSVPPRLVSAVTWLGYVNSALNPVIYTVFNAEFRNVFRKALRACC

[4] = target: T2, Adrenergic receptor alpha-1 (Homo sapiens, UniProt P35348+P25100+P35368); test: Binding affinity against alpha-1 adrenoceptor; assay type: protein assay
T2 sequence (P35348 whole entry): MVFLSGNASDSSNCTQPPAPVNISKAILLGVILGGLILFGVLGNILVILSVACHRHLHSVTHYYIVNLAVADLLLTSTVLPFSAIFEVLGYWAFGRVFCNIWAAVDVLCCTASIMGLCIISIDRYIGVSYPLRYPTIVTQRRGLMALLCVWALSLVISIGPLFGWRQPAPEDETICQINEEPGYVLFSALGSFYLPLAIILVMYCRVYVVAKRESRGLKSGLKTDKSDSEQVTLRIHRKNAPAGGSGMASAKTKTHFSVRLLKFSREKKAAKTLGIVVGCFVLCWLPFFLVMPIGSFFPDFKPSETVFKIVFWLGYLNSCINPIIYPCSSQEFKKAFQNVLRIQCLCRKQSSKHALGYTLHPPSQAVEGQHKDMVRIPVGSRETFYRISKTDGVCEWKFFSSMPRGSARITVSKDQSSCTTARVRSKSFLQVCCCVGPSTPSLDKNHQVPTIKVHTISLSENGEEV
T2 sequence (P25100 whole entry): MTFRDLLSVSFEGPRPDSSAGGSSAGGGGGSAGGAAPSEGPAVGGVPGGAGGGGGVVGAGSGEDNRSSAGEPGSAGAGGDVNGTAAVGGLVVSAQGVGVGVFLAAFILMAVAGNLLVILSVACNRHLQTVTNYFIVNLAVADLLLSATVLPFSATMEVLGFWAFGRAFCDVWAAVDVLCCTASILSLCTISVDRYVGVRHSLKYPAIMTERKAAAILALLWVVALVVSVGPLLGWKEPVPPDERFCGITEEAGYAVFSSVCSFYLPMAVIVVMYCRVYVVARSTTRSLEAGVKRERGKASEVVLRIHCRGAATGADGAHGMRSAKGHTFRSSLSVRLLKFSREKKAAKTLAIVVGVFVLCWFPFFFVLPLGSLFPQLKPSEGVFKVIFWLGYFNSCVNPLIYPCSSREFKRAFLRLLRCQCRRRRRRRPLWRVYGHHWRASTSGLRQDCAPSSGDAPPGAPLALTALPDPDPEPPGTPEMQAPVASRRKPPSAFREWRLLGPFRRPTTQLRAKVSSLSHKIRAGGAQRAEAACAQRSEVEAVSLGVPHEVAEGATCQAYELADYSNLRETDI
T2 sequence (P35368 whole entry): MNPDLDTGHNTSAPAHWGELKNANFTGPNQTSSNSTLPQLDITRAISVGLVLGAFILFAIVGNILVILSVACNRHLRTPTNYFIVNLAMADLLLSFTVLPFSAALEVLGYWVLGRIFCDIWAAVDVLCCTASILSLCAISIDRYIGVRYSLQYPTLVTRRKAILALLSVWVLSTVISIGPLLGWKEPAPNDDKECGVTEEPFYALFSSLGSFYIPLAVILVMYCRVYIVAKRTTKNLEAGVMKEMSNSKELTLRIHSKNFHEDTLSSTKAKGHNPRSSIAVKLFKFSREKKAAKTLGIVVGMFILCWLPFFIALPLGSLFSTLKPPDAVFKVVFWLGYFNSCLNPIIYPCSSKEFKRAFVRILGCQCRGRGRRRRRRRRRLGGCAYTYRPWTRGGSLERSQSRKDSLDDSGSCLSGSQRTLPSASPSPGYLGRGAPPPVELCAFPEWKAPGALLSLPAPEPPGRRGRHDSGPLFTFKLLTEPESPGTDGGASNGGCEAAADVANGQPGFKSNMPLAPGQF

[5] = target: 5-hydroxytryptamine receptor 1D (Cavia porcellus, UniProt Q60484); test: In vitro binding affinity towards 5-hydroxytryptamine 1D receptor in guinea-pig striatum in presence of BMY-7378 and mesulergine; assay type: tissue-based
Chain of 5-hydroxytryptamine receptor 1D (Q60484 whole entry): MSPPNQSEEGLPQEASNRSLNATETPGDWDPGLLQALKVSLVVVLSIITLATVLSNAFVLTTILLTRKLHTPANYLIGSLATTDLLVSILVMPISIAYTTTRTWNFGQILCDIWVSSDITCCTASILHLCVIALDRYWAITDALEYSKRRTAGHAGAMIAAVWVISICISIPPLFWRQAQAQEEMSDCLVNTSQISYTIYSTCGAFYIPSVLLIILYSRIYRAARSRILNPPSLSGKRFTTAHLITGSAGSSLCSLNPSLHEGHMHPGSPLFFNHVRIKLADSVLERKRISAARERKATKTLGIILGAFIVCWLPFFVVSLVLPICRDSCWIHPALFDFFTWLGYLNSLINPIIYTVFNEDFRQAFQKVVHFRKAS

[6] = target: D(3) dopamine receptor (Homo sapiens, UniProt P35462); test: Binding affinity against dopamine D3 receptor
Chain of D(3) dopamine receptor (P35462 whole entry): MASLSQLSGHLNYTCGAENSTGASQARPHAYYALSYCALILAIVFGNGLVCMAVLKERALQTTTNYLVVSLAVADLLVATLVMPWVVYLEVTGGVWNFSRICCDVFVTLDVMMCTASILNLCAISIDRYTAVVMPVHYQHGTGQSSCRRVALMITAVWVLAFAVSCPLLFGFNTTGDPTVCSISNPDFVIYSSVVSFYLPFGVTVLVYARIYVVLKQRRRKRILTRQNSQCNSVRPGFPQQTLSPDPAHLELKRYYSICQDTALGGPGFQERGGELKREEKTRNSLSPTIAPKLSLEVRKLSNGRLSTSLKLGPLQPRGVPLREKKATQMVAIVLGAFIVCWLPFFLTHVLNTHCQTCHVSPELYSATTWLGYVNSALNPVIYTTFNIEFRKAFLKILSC

Chain of D(1A) dopamine receptor (P21728 whole entry): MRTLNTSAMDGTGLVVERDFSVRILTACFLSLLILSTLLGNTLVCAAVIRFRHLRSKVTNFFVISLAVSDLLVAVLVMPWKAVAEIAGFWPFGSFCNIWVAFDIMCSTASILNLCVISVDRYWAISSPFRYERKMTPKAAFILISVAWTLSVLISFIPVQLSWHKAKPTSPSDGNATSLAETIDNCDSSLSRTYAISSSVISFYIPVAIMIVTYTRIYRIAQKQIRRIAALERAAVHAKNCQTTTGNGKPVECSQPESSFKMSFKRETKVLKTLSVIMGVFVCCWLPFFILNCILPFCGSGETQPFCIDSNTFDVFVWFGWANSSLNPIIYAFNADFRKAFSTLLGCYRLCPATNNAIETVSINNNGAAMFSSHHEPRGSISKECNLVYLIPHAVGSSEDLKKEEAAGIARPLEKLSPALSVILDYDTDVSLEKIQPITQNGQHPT

Ki [1]: > 10 µM
Ki [3]: > 10 µM
Log Ki [4]: > -6
Ki [5]: 0.00316 µM
Ki [6]: > 10 µM
Compound: COc1ccc(NC(=O)c2ccc(-c3ccc(-c4noc(C)n4)cc3C)cc2)cc1N1CCN(C)CC1 [GR-127935]
pKB [2]: 6.4
